The values that follow come from US12655101B2, “Small molecules with antibacterial activity” (NEW MEXICO TECH UNIVERSITY RESEARCH PARK CORPORATION, priority 2021, dated 2026).

Type in all cases: cell-based
The subject of assay [1] is A. baumannii ATCC 15151. The experiment in a line: Synergy of kanamycin and Compound 25, colony counts. The protocol:
Bacterial cells were prepared using methods described above. 500 μL aliquots of the adjusted bacterial cell suspensions were placed into borosilicate glass tubes, where the cell suspensions were treated with 12.5 μg/mL kanamycin, 1 μM or 2 μM Compound 25, or a combination of 12.5 μg/mL kanamycin plus 1 μM or 2 μM Compound 25. The culture tubes were incubated for 18 hours at 37° C. Colony counts were performed by 10-fold serially diluting the samples into fresh MHB and drip-streaking 10 μL from each dilution series onto MHA. The plates were incubated at 37° C. for 18 hours before the CFU/mL were determined by visual cell counts.
A. baumannii ATCC 15151 was grown from a glycerol stock by placing a small volume of cells onto a MHA plate. The MHA plate was incubated overnight at 37° C. A single colony was subsequently used to inoculate MHB to obtain a bacterial broth suspension. The MHB broth suspension was grown at 37° C. on a rotary shaking incubator (100 rpm) for 12 hours. The bacterial cell concentration was adjusted to ˜5×10^5 CFU/mL in MHB or MHB+40% FBS using OD at 595 nm. 500 μL aliquots of the adjusted bacterial cell suspensions were placed into borosilicate glass tubes. Cell suspensions were treated with 6 μg/mL or 12.5 μg/mL kanamycin, 1 μM, 2 μM, or 10 μM Compound 25, or a combination of 6 μg/mL or 12.5 μg/mL […] plus 1 μM, 2 μM, or 10 μM Compound 25. The culture tubes were incubated for 18 hours at 37° C. Colony counts were determined by 10-fold serially diluting the samples into fresh MHB and drip-streaking 10 μL from each dilution series onto MHA. The plates were incubated at 37° C. for 18 hours before the CFU/mL were determined by visual cell counts.

The subject of assay [2] is A. baumannii ATCC BAA-1797. Description: Synergy of gentamicin and Compound 25, colony counts. The note with it: 18 hours. The protocol:
Cells were cultured using methods described above. 500 μL of the adjusted bacterial cell suspensions were placed into borosilicate glass tubes, where the cell suspensions were treated with 100 μg/mL gentamicin, 2 μM Compound 25, or a combination of 100 μg/mL gentamicin plus 2 μM Compound 25. The culture tubes were incubated for 18 hours at 37° C. Colony counts were performed by 10-fold serially diluting the samples into fresh MHB and drip-streaking 10 μL from each dilution series onto MHA. The plates were incubated at 37° C. for 18 hours before the CFU/mL were determined by visual cell counts.
500 μL aliquots of the adjusted bacterial cell suspensions were placed into borosilicate glass tubes, where the cell suspensions were treated with 50 μg/mL gentamicin, 2 μM Compound 25, or a combination of 50 μg/mL gentamicin plus 2 μM Compound 25. The culture tubes were incubated for 18 hours at 37° C.

Assay [3] has as its system A. baumannii ATCC BAA-1797. Description: DNA degradation (agarose gel), drug-resistant strain. The note with it: drug-resistant ATCC BAA-1797; 10 μg/mL ciprofloxacin, 100 μM Compound 25; 5 hours.
In assay [4] the test system is A. baumannii ATCC 15151. Description: Filamentation with ciprofloxacin and Compound 25 on A. baumannii. As to conditions: for cell morphology and growth: 18 hours. The protocol: A. baumannii ATCC 15151: […] The culture tubes were incubated for 18 hours at 37° C. After 18 hours incubation, took 3 μL of cells from each well and plated on microscope slide to observe the following: […]

The subject of assay [5] is A. baumannii ATCC BAA-1797 in a culture of HeLa cells. Description: Selective killing of A. baumannii in a culture of HeLa cells. As to conditions: 60 μM Compound 26. The protocol:
In a separate experiment, the ability of […] to selectively kill A. baumannii ATCC BAA-1797 in a culture of HeLa cells in 40% FBS was studied. Cells were trypsinized, counted (cells/mL) using a hemocytometer, and plated (2×10^5 HeLa cells/100 μL) in tissue culture-treated 24-well plate in DMEM+1% penicillin/streptomycin (P/S)+10% FBS. Cells were adhered overnight at 37° C. in a humidified incubator with 5% CO2. Media was replaced the following day with DMEM+40% or 50% FBS. Selected wells were treated with 60 μM Compound 26, which included HeLa only and HeLa plus 10,000 A. baumannii ATCC BAA-1797—that had been previously grown in MHB for 12 hours in 37° C.—in the appropriate wells. Cells were incubated further for 18 hours at 37° C. 20% v/v MTT reagent (5 mg/mL stock) was added, and the samples were incubated for 10 minutes to observe viable bacteria. Plates were counted after a visual viability assessment.
Cells were trypsinized, counted (cells/mL) using a hemocytometer, and plated (2×10^5 HeLa cells/100 μL) in tissue culture-treated 24-well plate in DMEM+1% penicillin/streptomycin (P/S)+10% FBS. Cells were adhered overnight at 37° C. in a humidified incubator with 5% CO2. Media was replaced the following day with DMEM+40% or 50% FBS. […] Plates were counted after visual viability assessment.

[6] abbreviates: […] Compound 25+50 ng/mL ciprofloxacin.

In the case of `Brc1ccc(N/N=C/c2c[nH]c3cccc(OCc4ccccc4)c23)cc1.Cl` [Compound 25, (E)-2-((4-(benzyloxy)-1H-indol-3-yl)methylene)-1-(4-bromophenyl)hydrazin-1-ium chloride], the “synergy, logs of kill” value with A. baumannii ATCC 15151 [1] (12.5 μg/mL kanamycin+1 μM Compound 25, 18 hours) is on record as 2.5 logs of kill; in the assay with A. baumannii ATCC 15151 [1] (40% FBS, 12.5 μg/mL kanamycin+10 μM Compound 25), 9 logs of kill; in the assay with A. baumannii ATCC 15151 [1] (without serum, 6 μg/mL kanamycin+2 μM Compound 25), 8 logs of kill. In addition, the “synergy, full cell death” value in the assay on A. baumannii ATCC 15151 [1] (12.5 μg/mL kanamycin+2 μM Compound 25, 18 hours) is 9 orders of magnitude; in assay [2] (50 μg/mL gentamicin+2 μM Compound 25) it was 4 orders of magnitude; in assay [2] (100 μg/mL gentamicin+2 μM Compound 25), 8 orders of magnitude. In addition, the “ds DNA damage” value in assay [3] is “Neither Ciprofloxacin Nor Compound 25 Caused ds DNA Damage”. In addition, the “inhibition of ciprofloxacin-induced filamentation” value in the assay on A. baumannii ATCC 15151 [4] (setting [6]) is “only slightly inhibited”. Moreover, the “cell morphology and growth” value in the assay with A. baumannii ATCC 15151 [4] (setting [6]) was “elongated in morphology and growth inhibition was observed”; in the assay on A. baumannii ATCC 15151 [4] (single agent: 50 ng/mL ciprofloxacin or […] Compound 25) it was “morphologically normal and full growth was observed”.

For `Cl.Clc1ccc(N/N=C/c2c[nH]c3cccc(OCc4ccccc4)c23)cc1` [Compound 26, (E)-2-((4-(benzyloxy)-1H-indol-3-yl)methylene)-1-(4-chlorophenyl)hydrazin-1-ium], in assay [5] (40% FBS and 50% FBS), the “kill of A. baumannii ATCC BAA-1797 in HeLa co-culture” value was determined as 4 logs. The “selective eradication of A. baumannii from HeLa cells” value in assay [5] (18 hours, 40% or 50% FBS) was “selectively eradicated A. baumannii ATCC BAA-1797 from HeLa cells, leaving HeLa cells unharmed”.
